Measured values taken from publication PMC12069340 (Frontiers in Cellular and Infection Microbiology, 2025).
Structures can show the parent of a compound that is named as a salt.

Tested on: A/PuertoRico/8/1934 (H1N1) virus
Test: microbe, parasite or virus in culture
Format: cell-based, influenza A virus
Conditions: 20 µM

Molecule | NA Inhibition (%)
Urapidil HCl | 5.3
Varenicline Tartrate | 6.8
Vortioxetine (Lu AA21004) HBr | 23.8

Same assay, conditions: Influenza A virus, H1N1, U-937, 48 h, read-out: NA Inhibition (%)

Molecule | inhibition at 20 µM [%]
CN1[C@@H]2CC[C@H]1C[C@@H](OC(c1ccccc1)c1ccccc1)C2 [Benztropine mesylate] | 57.8
NCCc1ccc(O)c(O)c1 [Dopamine HCl] | -7.6
Cc1ccc(OCC(O)C(C)NC(C)C)c2c1CCC2 (stereo not shown) [ICI-118551] | 60.7
CC(COc1ccccc1)NC(C)C(O)c1ccc(O)cc1 (stereo not shown) [Isoxsuprine, Isoxsuprine hydrochloride] | 86.5
Cc1cccc(C(C)c2cnc[nH]2)c1C (stereo not shown) [Medetomidine HCl] | 59.7
Cc1ccc(N(CC2=NCCN2)c2cccc(O)c2)cc1 [Phentolamine Mesylate] | 72.3
CN1CCN(CCCN2c3ccccc3Sc3ccc(Cl)cc32)CC1 [Prochlorperazine dimaleate, Prochlorperazine dimaleate salt] | 63.9
OCc1cc(C(O)CNCCCCCCOCCCCc2ccccc2)ccc1O (stereo not shown) [Salmeterol Xinafoate] | 69.9

Same assay, conditions: Influenza A virus, H1N1, U-937, 48 h; read-out: NA Inhibition (%)

Molecule | inhibition at 20 µM [%]
CN1CCCC(n2nc(Cc3ccc(Cl)cc3)c3ccccc3c2=O)CC1 (stereo not shown) [Azelastine HCl] | 55.3
O=C(c1ccc(OCCCc2cnc[nH]2)cc1)C1CC1 [Ciproxifan] | 75.2
CN(C)[C@@H](CCOc1cccc2ccccc12)c1ccccc1 [Dapoxetine HCl] | 63.4
CC(C)NCC(O)c1ccc(O)c(O)c1 (stereo not shown) [Isoprenaline HCl] | -12.4
O=C(C[S+]([O-])Cc1ccco1)NC/C=C\COc1cc(CN2CCCCC2)ccn1 (stereo not shown) [Lafutidine] | 52
OC(CNCC(O)C1CCc2cc(F)ccc2O1)C1CCc2cc(F)ccc2O1 (stereo not shown) [Nebivolol] | 66.4
CCCN1C[C@H](CSC)C[C@@H]2c3cccc4[nH]cc(c34)C[C@H]21 [Pergolide mesylate] | 67.8
CCCN(CCc1cccs1)[C@H]1CCc2c(O)cccc2C1 [Rotigotine] | 89.1

Tested on: A/PuertoRico/8/1934 (H1N1) virus
Test: microbe, parasite or virus in culture
Format: cell-based, influenza A virus
Conditions: Influenza A virus, H1N1, U-937, 48 h

Molecule | IC50 [µM]
CN1CCCC(n2nc(Cc3ccc(Cl)cc3)c3ccccc3c2=O)CC1 (stereo not shown) [Azelastine HCl] | 8.4
O=C(c1ccc(OCCCc2cnc[nH]2)cc1)C1CC1 [Ciproxifan] | 1.4
CN(C)[C@@H](CCOc1cccc2ccccc12)c1ccccc1 [Dapoxetine HCl] | 6.65
Cc1ccc(OCC(O)C(C)NC(C)C)c2c1CCC2 (stereo not shown) [ICI-118551] | 5.8
CC(COc1ccccc1)NC(C)C(O)c1ccc(O)cc1 (stereo not shown) [Isoxsuprine, Isoxsuprine hydrochloride] | 1.5
O=C(C[S+]([O-])Cc1ccco1)NC/C=C\COc1cc(CN2CCCCC2)ccn1 (stereo not shown) [Lafutidine] | 14.8
Cc1cccc(C(C)c2cnc[nH]2)c1C (stereo not shown) [Medetomidine HCl] | 12.5
OC(CNCC(O)C1CCc2cc(F)ccc2O1)C1CCc2cc(F)ccc2O1 (stereo not shown) [Nebivolol] | 9.8
CCCN1C[C@H](CSC)C[C@@H]2c3cccc4[nH]cc(c34)C[C@H]21 [Pergolide mesylate] | 7.1
Cc1ccc(N(CC2=NCCN2)c2cccc(O)c2)cc1 [Phentolamine Mesylate] | 1
CCCN(CCc1cccs1)[C@H]1CCc2c(O)cccc2C1 [Rotigotine] | 1.26
OCc1cc(C(O)CNCCCCCCOCCCCc2ccccc2)ccc1O (stereo not shown) [Salmeterol Xinafoate] | 4.4

Tested on: A/Human/Hubei/3/2005 (H3N2)
Test: microbe, parasite or virus in culture
Format: cell-based
Conditions: Influenza A virus, H3N2, A549, 48 h, read-out: H3N2 IC50

Molecule | IC50 [µM]
O=C(c1ccc(OCCCc2cnc[nH]2)cc1)C1CC1 [Ciproxifan] | 14.9
CC(COc1ccccc1)NC(C)C(O)c1ccc(O)cc1 (stereo not shown) [Isoxsuprine, Isoxsuprine hydrochloride] | 34.3
CCCN(CCc1cccs1)[C@H]1CCc2c(O)cccc2C1 [Rotigotine] | 21.9

Tested on: B/Human/Hubei/1/2007 (IBV)
Test: microbe, parasite or virus in culture
Format: cell-based
Conditions: Influenza B virus, MDCK, 48 h, read-out: IBV IC50

Molecule | IC50 [µM]
O=C(c1ccc(OCCCc2cnc[nH]2)cc1)C1CC1 [Ciproxifan] | 1.8
CC(COc1ccccc1)NC(C)C(O)c1ccc(O)cc1 (stereo not shown) [Isoxsuprine, Isoxsuprine hydrochloride] | 3.4
CCCN(CCc1cccs1)[C@H]1CCc2c(O)cccc2C1 [Rotigotine] | 7.3

Tested on: U937 cells
Test: not given
Conditions: 20 µM

Molecule | Relative Viability (%)
Urapidil HCl | 103.3
Varenicline Tartrate | 108.9
Vortioxetine (Lu AA21004) HBr | 95.3

Tested on: single-stranded RNA (ssRNA) viruses
Test: not given
Conditions: cited from earlier work

Molecule | antiviral properties, virus entry
CN1CCN(CCCN2c3ccccc3Sc3ccc(Cl)cc32)CC1 [Prochlorperazine dimaleate, Prochlorperazine dimaleate salt] | exhibits antiviral properties by disrupting clathrin redistribution

Tested on: oral cancer cells
Test: not given
Design: method as in Sakakitani et al., 2020
Conditions: ref Sakakitani et al., 2020; cited from earlier work

Molecule | mesenchymal cell markers and motility
CC(COc1ccccc1)NC(C)C(O)c1ccc(O)cc1 (stereo not shown) [Isoxsuprine, Isoxsuprine hydrochloride] | downregulates mesenchymal cell markers and reduces motility

Tested on: primary tumor
Test: not given
Design: method as in Sakakitani et al., 2020
Conditions: xenograft model; ref Sakakitani et al., 2020; cited from earlier work

Molecule | primary tumor growth
CC(COc1ccccc1)NC(C)C(O)c1ccc(O)cc1 (stereo not shown) [Isoxsuprine, Isoxsuprine hydrochloride] | effectively suppressed primary tumor growth

Tested on: Bovine Liver Catalase (BLC)
Test: not given
Design: method as in Shahraki et al., 2020
Conditions: ref Shahraki et al., 2020; cited from earlier work

Molecule | catalase activity
CC(COc1ccccc1)NC(C)C(O)c1ccc(O)cc1 (stereo not shown) [Isoxsuprine, Isoxsuprine hydrochloride] | reduce catalase activity

Tested on: striatal neurons
Test: not given
Design: method as in Iwatsubo et al., 2007
Conditions: young and neonatal neurons; ref Iwatsubo et al., 2007; cited from earlier work

Molecule | apoptosis
NCCc1ccc(O)c(O)c1 [Dopamine HCl] | can induce apoptosis in young striatal neurons through D1-like receptors, but not in neonatal neurons
CC(C)NCC(O)c1ccc(O)c(O)c1 (stereo not shown) [Isoprenaline HCl] | did not promote apoptosis in either group

Tested on: not listed separately
Test: in vitro
Conditions: human, Relative Viability (%)

Molecule | viability at 20 µM [%]
CN1CCCC(n2nc(Cc3ccc(Cl)cc3)c3ccccc3c2=O)CC1 (stereo not shown) [Azelastine HCl] | 99.4
CN1[C@@H]2CC[C@H]1C[C@@H](OC(c1ccccc1)c1ccccc1)C2 [Benztropine mesylate] | 108
O=C(c1ccc(OCCCc2cnc[nH]2)cc1)C1CC1 [Ciproxifan] | 131
CN(C)[C@@H](CCOc1cccc2ccccc12)c1ccccc1 [Dapoxetine HCl] | 110
Cc1ccc(OCC(O)C(C)NC(C)C)c2c1CCC2 (stereo not shown) [ICI-118551] | 106
CC(COc1ccccc1)NC(C)C(O)c1ccc(O)cc1 (stereo not shown) [Isoxsuprine, Isoxsuprine hydrochloride] | 105
O=C(C[S+]([O-])Cc1ccco1)NC/C=C\COc1cc(CN2CCCCC2)ccn1 (stereo not shown) [Lafutidine] | 109
Cc1cccc(C(C)c2cnc[nH]2)c1C (stereo not shown) [Medetomidine HCl] | 103
OC(CNCC(O)C1CCc2cc(F)ccc2O1)C1CCc2cc(F)ccc2O1 (stereo not shown) [Nebivolol] | 89.4
CCCN1C[C@H](CSC)C[C@@H]2c3cccc4[nH]cc(c34)C[C@H]21 [Pergolide mesylate] | 118
Cc1ccc(N(CC2=NCCN2)c2cccc(O)c2)cc1 [Phentolamine Mesylate] | 117
CN1CCN(CCCN2c3ccccc3Sc3ccc(Cl)cc32)CC1 [Prochlorperazine dimaleate, Prochlorperazine dimaleate salt] | 93.5
CCCN(CCc1cccs1)[C@H]1CCc2c(O)cccc2C1 [Rotigotine] | 147
OCc1cc(C(O)CNCCCCCCOCCCCc2ccccc2)ccc1O (stereo not shown) [Salmeterol Xinafoate] | 90.4

Tested on: not listed separately
Test: in vitro
Conditions: human

Molecule | CC50 at 48 h [µM]
Cc1ccc(OCC(O)C(C)NC(C)C)c2c1CCC2 (stereo not shown) [ICI-118551] | > 80
O=C(C[S+]([O-])Cc1ccco1)NC/C=C\COc1cc(CN2CCCCC2)ccn1 (stereo not shown) [Lafutidine] | > 80

Tested on: not listed separately
Test: in vitro
Conditions: human
Remark: another data set of the same source

Molecule | CC50 [µM]
O=C(c1ccc(OCCCc2cnc[nH]2)cc1)C1CC1 [Ciproxifan] | 425
CC(COc1ccccc1)NC(C)C(O)c1ccc(O)cc1 (stereo not shown) [Isoxsuprine, Isoxsuprine hydrochloride] | > 900

Tested on: not listed separately
Test: in vitro
Conditions: human
Remark: another data set of the same source

Molecule | CC50 at 48 h [µM]
O=C(c1ccc(OCCCc2cnc[nH]2)cc1)C1CC1 [Ciproxifan] | 556
CC(COc1ccccc1)NC(C)C(O)c1ccc(O)cc1 (stereo not shown) [Isoxsuprine, Isoxsuprine hydrochloride] | > 900

Tested on: not listed separately
Test: in vitro
Conditions: dog

Molecule | CC50 at 48 h [µM]
O=C(c1ccc(OCCCc2cnc[nH]2)cc1)C1CC1 [Ciproxifan] | > 400
CC(COc1ccccc1)NC(C)C(O)c1ccc(O)cc1 (stereo not shown) [Isoxsuprine, Isoxsuprine hydrochloride] | > 400
CCCN(CCc1cccs1)[C@H]1CCc2c(O)cccc2C1 [Rotigotine] | 93

Tested on: not listed separately
Test: in vitro
Conditions: not given

Molecule | CC50 [µM]
C=C(CC)C(=O)c1ccc(OCC(=O)O)c(Cl)c1Cl [ethacrynic acid, Ethacrynic acid] | 240
COc1cc([C@@H]2c3cc4c(cc3[C@@H](O[C@@H]3O[C@@H]5CO[C@@H](C)O[C@H]5[C@H](O)[C@H]3O)[C@H]3COC(=O)[C@H]23)OCO4)cc(OC)c1O [etoposide] | 260

Same assay, conditions: human

Molecule | CC50 [µM]
CCCN(CCc1cccs1)[C@H]1CCc2c(O)cccc2C1 [Rotigotine] | 372

Same assay, conditions: human, A549 cells

Molecule | CC50 [µM]
O=C(c1ccc(OCCCc2cnc[nH]2)cc1)C1CC1 [Ciproxifan] | 556
CC(COc1ccccc1)NC(C)C(O)c1ccc(O)cc1 (stereo not shown) [Isoxsuprine, Isoxsuprine hydrochloride] | 530

Tested on: not listed separately
Test: Validation screen: cytotoxicity without viral infection
Conditions: human

Molecule | CC50 at 48 h [µM]
O=C(c1ccc(OCCCc2cnc[nH]2)cc1)C1CC1 [Ciproxifan] | > 80
CC(COc1ccccc1)NC(C)C(O)c1ccc(O)cc1 (stereo not shown) [Isoxsuprine, Isoxsuprine hydrochloride] | > 80
Cc1cccc(C(C)c2cnc[nH]2)c1C (stereo not shown) [Medetomidine HCl] | > 80

Same assay, conditions: human, uninfected U937 cells

Molecule | CC50 at 48 h [µM]
CN1CCCC(n2nc(Cc3ccc(Cl)cc3)c3ccccc3c2=O)CC1 (stereo not shown) [Azelastine HCl] | 55.7
CN1[C@@H]2CC[C@H]1C[C@@H](OC(c1ccccc1)c1ccccc1)C2 [Benztropine mesylate] | > 80
CN(C)[C@@H](CCOc1cccc2ccccc12)c1ccccc1 [Dapoxetine HCl] | 76.1
OC(CNCC(O)C1CCc2cc(F)ccc2O1)C1CCc2cc(F)ccc2O1 (stereo not shown) [Nebivolol] | 33.3
CCCN1C[C@H](CSC)C[C@@H]2c3cccc4[nH]cc(c34)C[C@H]21 [Pergolide mesylate] | > 80
Cc1ccc(N(CC2=NCCN2)c2cccc(O)c2)cc1 [Phentolamine Mesylate] | > 80
CN1CCN(CCCN2c3ccccc3Sc3ccc(Cl)cc32)CC1 [Prochlorperazine dimaleate, Prochlorperazine dimaleate salt] | 38.4
OCc1cc(C(O)CNCCCCCCOCCCCc2ccccc2)ccc1O (stereo not shown) [Salmeterol Xinafoate] | 40.2
